Laboratory results: patent US7442394B2, “Combined effects of nutrients on proliferation of stem cells” (University of South Florida, priority 2005, dated 2008)

Experiments:
[1] = system: CD133+ (progenitor cells) collected from peripheral blood; assay: MTT cell proliferation assay on CD133+ cells; assay type: cell-based, human; conditions: same conditions as CD34+ cells
Experimental: (§1) Cell cultures and MTT Assay. For cell proliferation analysis, human bone marrow cells, human CD34+cells or CD133 cells (BioWhittaker, Inc.) were cultured in 96 well plates (5×10^4/well) containing 100 μL of complete medium (RPMI 1640 medium supplemented with 5% fetal calf serum). These cells were treated for 72 hours with various extracts at a wide range of doses (8 ng/mL to 500 ng/mL) or molecular compounds (0.3125 μM to 20 μM). Five hours before the end of the treatment, 20 μL of MTT solution (MTT kit, Sigma) was added to each well. These plates were then incubated in a CO2 incubator at 37° C. for 5 hours and the cultured media removed with needle and syringe. 200 μL of DMSO was added to each well with pipetting up and down to dissolve crystals. These plates were put back into the 37° C. incubator for 5 minutes, transferred to plate reader and measured absorbance at 550 nm. Data were represented as relative percentage mean proliferation, defined as O.D. reading number of each treated cells normalized to control cells (in the absence of treatment).
Promotion of CD133+ Cell Proliferation and Synergistic Properties of Extracts and Compounds. Some of the compounds and combinations with the greatest activity on proliferation of the bone marrow derived CD34+ cells were then used to treat CD133+ (progenitor cells) collected from peripheral blood and cultured under the same conditions as above.

[2] = daily administration of 4000 IUs (100 mcg); cited from earlier work
[3] = Vitamin D3 blood concentration in humans; assay type: in vivo; conditions: dose of 50 mcg
Experimental: In one example, Vitamin D3 is used as 2000 IU's, which is equivalent to 50 μg. In humans, daily administration of 4000 IUs (100 mcg) results in a blood concentration of 100 nmol/L. There is no official RDA for vitamin D3 [R. Vieth, D. Fraser, Vitamin D insufficiency: no recommended dietary allowance exists for this nutrient, CMAJ 166 (2002) 1541-1542](4). According to a conservative report of the Food and Nutrition Board [R. Vieth (2004) Why the optimal requirement for Vitamin D3 is probably much higher than what is officially recommended for adults. Journal of Steroid Biochemistry & Molecular Biology 89-90 (2004) 575-579], the safety limit (no adverse effect level, NOAEL) of vitamin D3 intake in humans is 60 mcg (or 2400 IU) per day [Standing Committee on the Scientific Evaluation of Dietary Reference Intakes. Dietary Reference Intakes: Calcium, Phosphorus, Magnesium, Vitamin D, and Fluoride. National Academy Press, 1997]. After applying a margin of safety, the recommended upper limit is 50 mcg (2000 IUs) per day for intake by the general public [I. Munro, Derivation of tolerable upper intake levels of nutrients, Am. J. Clin. Nutr. 74 (2001) 865-867]. Clinical trials show no benefit from oral doses 20 mcg (800 IUs) or less [R. Vieth (2004) Why the optimal requirement for Vitamin D3 is probably much higher than what is officially recommended for adults. […]

[4] = cited from earlier work
[5] = system: Human bone marrow-derived CD34+ cells; assay: MTT cell proliferation assay on CD34+ cells; assay type: cell-based; conditions: highest doses (BB 500 ng/mL, D3 5 μM, CH 20 μM, Ca 20 μM, GT 500 ng/mL), 72 hours
Experimental: Human CD133+ cells were cultured for 23 days in the presence or absence of green tea (50 μg/ml).
as §1

human bone marrow cells = assay: MTT cell proliferation assay on human bone marrow cells; assay type: cell-based; conditions: for proliferative activity on human bone marrow cells in culture (screen): screened individually; for increase in proliferation, percent over control: 20 μM
[6] = cited from earlier work; remark: listed apart in the source
[7] = Human pK study of carnosine after beef consumption (Park et al. 2005); assay type: in vivo, humans
Experimental: In one example, carnosine is added to a supplement in a dose of 100 mg. A recent pK study in humans [Park Y J, Volpe S L, Decker, E A (2005) Quantitation of Carnosine in Humans Plasma after Dietary Consumption of Beef. J. Agric. […] With a Mw of 266 and assuming 5 liters of blood in a human, 250 mg carnosine produces a blood conc of […]. Assuming linear pK, 100 mg should produce a human blood concentration of […]. Doses tested ranged from 1-20 μM, effect was still increasing at 20 μM. Thus, a dose as high as 620 may be helpful and still be within normal ranges for human consumption. A preferred effective range is about 10 mg to 100 mg of carnosine based on extrapolation from results obtained.

[8] = system: colony forming units (CFU-C's); assay: HALO colony forming assay of bone marrow, spleen and mononuclear cells; assay type: in vivo, mice; conditions: 6 days of treatment
Experimental: (§2) On day 7 cells were isolated and prepared for flow cytometry. The percentage of CD117/SCA-1 positive cells was analyzed. This represents a hematopoietic stem cells. […] On day 7 cells were isolated and plated in the colony forming assay (see specific methods) for 5 days. ATP was detected by luciferase assay and luminescence was converted to ATP units with use of a standard curve. […] Although a statistically small sample, the effects show a cytokine like effect to reduce progenitors in the bone marrow.
(§3) In vivo studies. […] To date we have treated 3 mice with (Blueberry Extract: 3 mg/kg/day; Carnosine: 10 mg/kg/day; Vitamin D3:1 mg/kg/day; green tea extract: 3 mg/kg/day) or water by gavage, in addition 3 mice have been treated with G-CSF […] i.p. Initial studies were done at 6 days of treatment as this is an optimal time for G-CSF to show mobilization of progenitors into the peripheral blood. Bone marrow, spleen and peripheral blood mononuclear cells were examined by flow cytometry with SCA-1 and CD117, the presence of both markers is indicative of multipotent hematopoietic stem cells. […] The three fractions were also assessed in the HALO™ colony forming assay. […] This effect is consistent with the literature and thus increases our confidence in this version of the CFU-C assay.

[9] = system: CD117/SCA-1 positive cells (hematopoietic stem cells); assay: Flow cytometry of CD117/SCA-1 positive cells after 6 days of treatment; assay type: in vivo, mice; conditions: day 7
Experimental: as §2, §3

In the case of C=C1CC[C@H](O)C/C1=C/C=C1\CCC[C@]2(C)[C@@H]([C@H](C)CCCC(C)(C)O)CC[C@@H]12 [25-Hydroxycholecalciferol], the “increase in proliferation, percent over control (FIG. 2C)” value [1] is given as 7.6±1.39%, the blood concentration [2] is given as 0.1 µM and the plasma concentration [3] is given as 0.05 µM. The “recommended upper limit for intake by the general public” value ([4]; after applying a margin of safety) was 50 mcg per day, the “safety in clinical trials” value ([4]; human oral doses of 1000 IUs to 4000 IUs (100 mcg/day)) was “completely safe” and the “safety limit (no adverse effect level, NOAEL) of intake” value ([4]; humans) was 60 mcg per day. The “increase in proliferation, percent over control (FIG. 2B)” value [5] was 6.9±2.6%, the “proliferation, percent over control” value (human bone marrow cells; 5 μM, 72 hours) was 14.8±3.3% and the “proliferative activity on human bone marrow cells in culture (screen)” value (from here on “proliferative activity”) (human bone marrow cells) was “increase cell proliferation”.

For NCCC(=O)N[C@@H](Cc1cnc[nH]1)C(=O)O [Carnosine], the “increase in proliferation, percent over control (FIG. 2C)” value [1] is given as 16.9±3.3%, the plasma conc. ([6]; 250 mg carnosine (two beef patties) ingested) is given as 33000 ng/mL and the “time of plasma peak” value ([6]; 250 mg carnosine ingested) is given as 3 h. The “time of return to baseline” value ([6]; 250 mg carnosine ingested) was 5 h, the “increase in proliferation, percent over control (FIG. 2B)” value [5] was 11.05±2.1% and the “increase in proliferation, percent over control” value (human bone marrow cells; 72 hours) was 26.6±6.0%. For the same molecule, the “proliferative activity” value (human bone marrow cells) was “increase cell proliferation”, the human blood concentration ([7]; 100 mg, assuming linear pK) was 248 µM and the concentration at 3 h ([7]; human, whole blood, oral, 250 mg carnosine, Mw of 266, assuming 5 liters of blood, read-out: blood conc) was 620 µM.

With O=C(O[C@@H]1Cc2c(O)cc(O)cc2O[C@@H]1c1cc(O)c(O)c(O)c1)c1cc(O)c(O)c(O)c1 [EGCG] the “proliferative activity” value (human bone marrow cells) was “did not show high activity”.

For Catechin, the “increase in proliferation, percent over control (FIG. 2B)” value [5] was 24.8±5.0%, the “increase in proliferation, percent over control” value (human bone marrow cells; 72 hours) was 34.8±5.2% and the “proliferative activity” value (human bone marrow cells) was “increase cell proliferation”.

For “hGM-CSF: positive control, human granulocyte colony-stimulating factor”, the “increase in proliferation, percent over control (FIG. 2C)” value [1] was 21.11±2.9%, the “increase in proliferation, percent over control (FIG. 2B)” value [5] was 48.3±7.4% and the “increase in proliferation, percent over control (FIG. 2A)” value (human bone marrow cells; combination experiment, BB 500 ng/mL, D3 5 μM, CH 20 μM, Ca 20 μM, GT 500 ng/mL, 72 hours) was 48.3±7.4%. For the same molecule, the “proliferation, percent over control” value (human bone marrow cells; highest dose of 100 ng/ml, 72 hours) was 44.5±8.1%.

B1: G-CSF: granulocyte-colony-stimulating factor, potent cytokine given i.p. to mice (protein, UniProt P09919 31-207, looked up)
Granulocyte …: TPLGPASSLPQSFLLKCLEQVRKIQGDGAALQEKLVSECATYKLCHPEELVLLGHSLGIPWAPLSSCPSQALQLAGCLSQLHSGLFLYQGLLQALEGISPELGPTLDTLQLDVADFATTIWQQMEELGMAPALQPTQGAMPAFASAFQRRAGGVLVASHLQSFLEVSYRVLRHLAQP
With B1 the “colony forming units (CFU-C's)” value ([8]; bone marrow fraction) was “decrease”, the “colony forming units (CFU-C's)” value ([8]; bone marrow fraction, listed as GCSF) was “reduce” and the “colony forming units (CFU-C's)” value ([8]; spleen and MNC fractions) was “increase”. The CD117/SCA-1 positive cells ([9]; BM population) was “decrease”, the CD117/SCA-1 positive cells ([9]; all 3 cell fractions (BM, spleen, MNC)) was “small increase” and the CD117/SCA-1 positive cells ([9]; spleen and MNC populations) was “trend for an increase”.
